In patent publication US20230381204A1, “COMPOSITIONS FOR TREATING INFLAMMATIONS, WOUNDS AND SCARRING” (priority 2020, published 2023):

Assays:
IL-1α = assay: LPS-induced IL-1α secretion in RAW 264.7 cells (ELISA); assay type: cell-based; conditions: Mus musculus, read-out: IL-1 alpha inhibition
Description: (§1) RAW 264.7 cells ([…] ¢/ml, by counting) were seeded in 96 well plates containing 170 μl/well of complete growth medium (See formulation section). The cells were incubated at 37° C. with 5% CO2 for 24 hr. The medium was aspirated and replaced by LPS-containing medium (25 ng/ml) with or without the Tested Samples at two different concentrations (similarly to what is presented in Table 1). In addition, Naïve cells (Group 1), vehicle treated cells (Group 2), Stimulated Control (Group 3) and Stimulated Vehicle Control (Group 4) served as negative controls. SDS (Group 5) and Dexamethasone (Group 6) served as positive controls for viability and anti-inflammatory assays, respectively. A Blank control group was included in the assay (Group 11), and subtracted from all treatments.
(§2) The cells were incubated at 37° C. with 5% CO2 for 24 hr. At the end of incubation, the viability of the cells was measured using the MTT assay, according to SOP. […] IL-1α, TNFα and IL-6 levels were measured by ELISA, according to manufacturer instructions. […]
(§3) The anti-inflammatory activity of the Tested Samples was examined in the LPS-induced inflammatory model (RAW 264.7 cells) and the secretion of three cytokines was monitored. Then, the compatibility and possible synergistic action of selected combination was determined. IL-1α, TNFα and IL-6 levels were measured by ELISA, according to manufacturer instructions.

TNFα = assay: LPS-induced TNFα secretion in RAW 264.7 cells (ELISA); assay type: cell-based, Mouse
Description: RAW 264.7 cells (170×105 ¢/ml, by counting) were seeded in 96 well plates containing 170 μl/well of complete growth medium (See formulation section). The cells were incubated at 37° C. with 5% CO2 for 24 hr. The medium was aspirated and replaced by LPS-containing medium (25 ng/ml) with or without the Tested Samples at two different concentrations (similarly to what is presented in Table 1). In addition, Naïve cells (Group 1), vehicle treated cells (Group 2), Stimulated Control (Group 3) and Stimulated Vehicle Control (Group 4) served as negative controls. SDS (Group 5) and Dexamethasone (Group 6) served as positive controls for viability and anti-inflammatory assays, respectively. A Blank control group was included in the assay (Group 11), and subtracted from all treatments.
The cells were incubated at 37° C. with 5% CO2 for 24 hr. At the end of incubation, the viability of the cells was measured using the MTT assay, according to SOP. Viability greater than 85% was considered nontoxic. In addition, the spent media from all test groups was collected under standardized conditions and centrifuged at 250×g for 5 min to remove particulates. Clear supernatants were frozen at −70° C. until cytokine analysis. IL-1α, TNFα and IL-6 levels were measured by ELISA, according to manufacturer instructions.
Cell culturing and treatments was performed under sterile conditions. Experiments were carried out in a certified RAW 264.7 cells (Mouse monocyte macrophage) obtained originally from ECACC. The cells were incubated at 37° C. with 5% CO2 for 24 hr. Then, the medium
was aspirated and replaced by LPS-containing medium (25 ng/ml) with or without the Tested Samples. In addition, Naïve cells, vehicle treated cells, Stimulated Control and Stimulated Vehicle Control served as negative controls. Dexamethasone served as positive controls for anti-inflammatory assays. Blank control group was included in the assay, and subtracted from all treatments.
The anti-inflammatory activity of the Tested Samples was examined in the LPS-induced inflammatory model (RAW 264.7 cells) and the secretion of three cytokines was monitored. […] IL-1α, TNFα and IL-6 levels were measured by ELISA, according to manufacturer instructions.
Experiments were carried out in a certified RAW 264.7 cells (Mouse monocyte macrophage) obtained originally from ECACC. RAW 264.7 cells (approx. 2×105 ¢/ml, by counting) were seeded in 96 well plates containing 170 μl/well of complete growth medium. The cells were incubated at 37° C. with 5% CO2 for 24. Next, the medium was aspirated and replaced by LPS-containing medium (25 ng/ml) with or without the Tested Samples.
In addition, Naïve cells, vehicle treated cells, Stimulated Control and Stimulated Vehicle Control served as controls (FIG. 4A). […]

IL-6 = assay: LPS-induced IL-6 secretion in RAW 264.7 cells (ELISA); assay type: cell-based; conditions: Mus musculus, RAW264.7, LPS 25 ng/ml, 24 hr
Description: as §1, §2, §3

RAW 264.7 cells = assay: MTT cell viability (toxicity evaluation) in RAW 264.7 cells; assay type: cell-based, Mouse; conditions: positive control for viability, 0.1%; 24 hr
Description: The assay was performed on 15 Tested Samples in triplicates (the Tested Samples are labeled 1-11 and 13-16). RAW 264.7 cells (1.7×10^5 ¢/ml, by counting) were seeded in 96 well plates containing […] of complete growth medium (see formulation section). The cells were incubated at 37° C. with 5% CO2 for 24 hr. The medium was aspirated and replaced by LPS-containing medium (25 ng/ml) with or without the Tested Samples at four different concentrations, as described below. In addition, Naive cells (Group 1), vehicle treated cells (Group 2), Stimulated Control (Group 3) and Stimulated Vehicle Control (Group 4) served as negative controls. SDS (Group 5) and Dexamethasone (Group 6) served as positive controls for viability and anti-inflammatory assays, respectively. The blank control group was included in the assay (Group 11), and subtracted from all treatments. The cells were incubated at 37° C. with 5% CO2 for 24 hr. At the end of incubation, the viability of the cells was measured using the MTT assay. Viability greater than 85% was considered nontoxic.

## C=C(C)[C@@H]1CCC(C)=C[C@H]1c1c(O)cc(CCCCC)cc1O [CBD, cannabidiol]
IL-1α; RAW264.7, 0.5 μg/ml alone, LPS 25 ng/ml, 24 hr
  inhibition at 0.5 µg/mL: 7.6%
TNFα; Mus musculus, RAW264.7, 0.1 μg/ml alone, LPS 25 ng/ml, 24 hr, read-out: TNF alpha inhibition
  inhibition at 0.1 µg/mL: 12.3%
TNFα; Mus musculus, RAW264.7, 0.5 μg/ml alone, LPS 25 ng/ml, 24 hr, read-out: TNF alpha inhibition
  inhibition at 0.5 µg/mL: 22.6%
IL-6; 0.1 μg/ml alone
  inhibition at 0.1 µg/mL: 8.2%
IL-6; 0.5 μg/ml alone
  inhibition at 0.5 µg/mL: 10.6%

## CCCCCc1cc(O)c(C/C=C(\C)CCC=C(C)C)c(O)c1 [CBG, cannabigerol]
IL-1α; RAW264.7, 24 h
  inhibition at 2 µg/mL: 12.9%
TNFα; Mus musculus, RAW264.7, 24 h, read-out: TNF alpha inhibition
  inhibition at 2 µg/mL: 26.8%

## CCCCCCCCCCCCOS(=O)(=O)[O-].[Na+] [SDS]
RAW 264.7 cells
  cell viability (MTT): toxic and caused a significant reduction in cell viability

## NC(=O)NC1NC(=O)NC1=O (stereo not drawn) [allantoin]
TNFα; 2 μg/ml alone, LPS 25 ng/ml
  TNF alpha inhibition: no activity
